Measured values: US6642392B1 (priority 1997, dated 2003)
Read-outs that look alike come from different tables or passages of the source.

Assays:
Assay type in all cases: in vivo
Botrytis cinerea = experiment: Test E: gray mold, preventive spray on cucumber seedlings; settings: for Test E disease control rating: gray mold on cucumber; for Test E disease control rating (100 = 100% disease control, 0 = no disease control): cucumber seedlings sprayed to run-off, inoculated the following day, rating relative to controls, unmarked compounds (standard test rate)
Method in brief: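 Preventive spray on cucumber seedlings used a suspension (3% acetone, 250 ppm Trem 014), applied to run-off one day before inoculation with Botrytis cinerea spores. Plants were held 48 h at 20° C in saturated air, then 5 days at 20° C. Percent disease control was scored relative to untreated plants.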

Puccinia recondita = experiment: Test B: wheat leaf rust, preventive spray on wheat seedlings; settings: for Test B disease control rating: wheat leaf rust; for Test B disease control rating (100 = 100% disease control, 0 = no disease control): wheat seedlings sprayed to run-off, inoculated the following day, rating relative to controls, unmarked compounds (standard test rate)
Method in brief: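 Preventive test: P. recondita spores were applied one day after a run-off spray of compound suspension on wheat seedlings. Plants had 24 h at 20 °C in saturated air plus 6 days in a 20 °C growth chamber. Scoring is % disease control (100 = full) relative to controls.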

Pyricularia oryzae = settings: for Test C disease control rating: rice blast; for Test C disease control rating (100 = 100% disease control, 0 = no disease control): rice seedlings sprayed to run-off, inoculated the following day, rating relative to controls, unmarked compounds (standard test rate)
Phytophthora infestans = settings: for Test D disease control rating: tomato late blight; for Test D disease control rating (100 = 100% disease control, 0 = no disease control): tomato seedlings sprayed to run-off, inoculated the following day, rating relative to controls, unmarked compounds (standard test rate)
[1] = test system: Eiysiphe graminis f. sp. tritici; experiment: Test A: wheat powdery mildew, preventive spray on wheat seedlings; settings: for Test A disease control rating: wheat powdery mildew; for Test A disease control rating (100 = 100% disease control, 0 = no disease control): wheat seedlings sprayed to run-off, inoculated the following day, rating relative to controls, unmarked compounds (standard test rate)
Method in brief: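 Preventive test: seedlings inoculated with powdery mildew spores one day after run-off spraying of a suspension. Ratings after 7 days in a 20° C growth chamber express percent disease control versus controls.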

[2] = 100 = 100% disease control, 0 = no control, unmarked entries (standard test concentration)
[3] = 100 = 100% disease control, 0 = no control relative to controls, unmarked entries (standard test concentration)

SMILES | Test E disease control rating (Botrytis cinerea; [2]) [%] | Test B disease control rating (Puccinia recondita; [2]) [%] | Test C disease control rating (Pyricularia oryzae; [2]) [%] | Test D disease control rating (Phytophthora infestans; [2]) [%] | Test A disease control rating [1, 3] [%] | Test E disease control rating (100 = 100% disease control, 0 = no disease control) (Botrytis cinerea) [%] | Test B disease control rating (100 = 100% disease control, 0 = no disease control) (Puccinia recondita) [%] | Test C disease control rating (100 = 100% disease control, 0 = no disease control) (Pyricularia oryzae) [%] | Test D disease control rating (100 = 100% disease control, 0 = no disease control) (Phytophthora infestans) [%] | Test A disease control rating (100 = 100% disease control, 0 = no disease control) [1] [%] | further results
C=CCc1cccc(C#N)c1OCC(C)NC(=O)C(C#N)C(C)(C)C (mixture of isomers) [compound 204] | 0 | 0 | 74 | 0 | 0 | – | – | – | – | – | –
CC(COc1ccccc1C#N)NC(=O)C(C#N)C(C)(C)C (mixture of isomers) [13a] | 0 | 0 | 51 | 0 | 34 | – | – | – | – | – | –
CC(COc1cc(F)ccc1Cl)NC(=O)C(C#N)C(C)(C)C=CF (mixture of isomers) [compound 222] | – | – | – | – | – | 0 | 28 | 100 | 41 | 62 | –
CC(COc1cccc(Cl)c1C#N)NC(=O)C(C#N)C(C)C(C)(C)C (mixture of isomers) [compound 64] | 0 | 0 | 53 | 2 | 0 | – | – | – | – | – | –
CCC1(C(=O)NC(C)COc2cc(F)ccc2C#N)C(C)C1(Cl)Cl (stereo not shown) [compound 245] | – | – | – | – | – | 0 | 0 | 100 | 0 | 72 | –
Cc1c(Cl)cc(C#N)n1OCC(C)NC(=O)C(C#N)C(C)(C)C (mixture of isomers) [compound 49] | 0 | 0 | 0 | 0 | 0 | – | – | – | – | – | –
CCC1(C(=O)NC(C)COc2cccc(CF)c2)C(C)C1(Cl)Cl (mixture of isomers) [compound 93] | – | – | – | – | – | – | – | – | – | – | Test E disease control rating (Botrytis cinerea; tested at 40 ppm): 0%; Test B disease control rating (Puccinia recondita; tested at 40 ppm): 0%; Test C disease control rating (Pyricularia oryzae; tested at 40 ppm): 85%; Test D disease control rating (Phytophthora infestans; tested at 40 ppm): 19%; Test A disease control rating ([1]; tested at 40 ppm): 57%
CC(COc1ccccc1Br)NC(=O)C1(C)CC1(Cl)Cl (mixture of isomers) [compound 313] | – | – | – | – | – | 47 | 0 | 26 | 32 | 0 | –
C[C@H](COc1ccccc1F)NC(=O)C(C#N)C(C)(C)C (single isomer, unassigned) [2b] | 0 | 0 | 100 | 0 | 0 | – | – | – | – | – | –
CCC1(C(=O)NC(C)COc2ccccc2CC#N)C(C)C1(Cl)Cl (stereo not shown) [compound 103] | 0 | 26 | 53 | 0 | 0 | – | – | – | – | – | –
CC(C)(C)C(C#N)C(=O)NC/C=C/c1ccc(F)cc1F (racemic) [compound 273] | – | – | – | – | – | 0 | 0 | 53 | 23 | 86 | –
